Measured values from US10688122B2, “Thiol and disulfide-containing agents for increasing meibomian gland lipid secretion” (Azura Ophthalmics Ltd., priority 2015, dated 2020).

Tested on: Sebocytes SEBO662 (3D epithelium)
Assay: Lipid synthesis/accumulation in 3D model culture of Sebocytes (Oil-red-O staining, lipid droplet surface area)
Type: cell-based, human
Settings: for lipid accumulation, % of the control / stimulation of lipid accumulation (in words): 14 days incubation, 3D Sebocytes; for lipid accumulation, % of the control: Oil-red-O lipid droplet surface area; for effect on lipid synthesis in the 3D Sebocytes model (conclusion, in words): overall conclusion, no concentration stated
Excerpt: Since secretory cells (meibocytes) of meibomian glands, share similarities with that of the secretory cells (sebocytes) of sebaceous glands, as can be validated from their similar structure, similar function and their joint embryologic development (Knop 2011_IOVS) the effect of Thiol containing Lipids on lipid production can be evaluated in a 3D model culture of Sebocytes. See also: Barrault 2012, Immortalized sebocytes can spontaneously differentiate into a sebaceous-like phenotype when cultured as a 3D epithelium, Exp. Derm, 21:299-319
The effect of different compounds on lipid synthesis was evaluated, in a 3D model culture of Sebocytes. Drug candidates were drugs containing S—H or disulfide: Selenium disulfide (SeS2 dispersed in CarboxymethylCellulose—CMC) as a positive control, Selenocysteine, Captopril, Disulfiram and lipids containing S—H or disulfide: Thioethanol, 12-Mercaptododecanoic acid. Since Sebocytes differentiation is associated with increased lipid synthesis and accumulation, evaluation of proliferation and differentiation was done by quantifying lipid accumulation in the 3D Sebocytes culture (human cell line—SEBO662). Lipid accumulation was evaluated by lipid staining with Oil red staining.
Sebocytes SEBO662 were cultured into a three dimension (3D) epithelium and differentiated to a sebaceous-like phenotype. The Sebocytes were treated or not (control) with the test compounds and incubated for 14 days. All experiments were performed 3 times. After incubation, tissues were snap-frozen. Formaldehyde-fixed cryo sections were stained using an Oil-red-O solution and counterstained using haematoxylin. For each test condition, the sections were observed using a light microscope equipped with a camera. Five pictures were taken per replicate, making 15 values per treatment condition. The lipid content in each sample was quantified by calculation of the lipid droplet surface area. Quantitative comparison of all data points between lipid's droplet surface area of tested compounds versus control was performed

## O=C(O)CCCCCCCCCCCS [12-Mercaptododecanoic acid]
0.1 μM
  lipid accumulation, % of the control: 385%
1 μM
  lipid accumulation, % of the control: 349%
  effect on lipid synthesis in the 3D Sebocytes model (conclusion, in words): significant stimulating effect

## C[C@H](CS)C(=O)N1CCC[C@H]1C(=O)O [Captopril]
1 μM
  lipid accumulation, % of the control: 240%
10 μM
  lipid accumulation, % of the control: 173%
  effect on lipid synthesis in the 3D Sebocytes model (conclusion, in words): significant stimulating effect

## CCN(CC)C(=S)SSC(=S)N(CC)CC [Disulfiram]
100 μM
  lipid accumulation, % of the control: 199%
1000 μM
  stimulation of lipid accumulation (in words): no stimulation effect
  effect on lipid synthesis in the 3D Sebocytes model (conclusion, in words): significant stimulating effect

## S=[Se]=S [Selenium disulfide]
0.01 μM
  lipid accumulation, % of the control: 282%
0.1 μM
  lipid accumulation, % of the control: 348%
  effect on lipid synthesis in the 3D Sebocytes model (conclusion, in words): significant stimulating effect

## N[C@@H](C[SeH])C(=O)O [Selenocysteine]
1 μM
  lipid accumulation, % of the control: 296%
10 μM
  stimulation of lipid accumulation (in words): no stimulation effect
  effect on lipid synthesis in the 3D Sebocytes model (conclusion, in words): significant stimulating effect

## OCCS [Thioethanol]
0.1 μM
  lipid accumulation, % of the control: 251%
1 μM
  lipid accumulation, % of the control: 228%
  effect on lipid synthesis in the 3D Sebocytes model (conclusion, in words): significant stimulating effect
